In PubChem BioAssay AID1259407 (Chemical Carcinogenesis Research Information System (CCRIS), 2018):
Activity calls are given as the source filed them. The rule behind the calls is not given here.

Tested on: CCRIS mutagenicity, Ames/micronucleus/aberration tests
Test: CCRIS mutagenicity studies

**Q.** Which results are given for C[n+]1c2ccccc2nc2ccccc21?
**A.** mutagenic call (Test System: AMES SALMONELLA TYPHIMURIUM, Strain/Indicator: TA98, Metabolic Activation: NONE, Method: STANDARD PLATE): inactive; negative; mutagenic call (Test System: AMES SALMONELLA TYPHIMURIUM, Strain/Indicator: TA102, Metabolic Activation: NONE, Method: PREINCUBATION): inactive; negative; mutagenic call (Test System: AMES SALMONELLA TYPHIMURIUM, Strain/Indicator: TA102, Metabolic Activation: NONE, Method: STANDARD PLATE): inactive; negative; mutagenic call (Test System: AMES SALMONELLA TYPHIMURIUM, Strain/Indicator: TA1535, Metabolic Activation: NONE, Method: PREINCUBATION): inactive; negative; mutagenic call (Test System: AMES SALMONELLA TYPHIMURIUM, Strain/Indicator: TA1535, Metabolic Activation: NONE, Method: STANDARD PLATE): inactive; negative; mutagenic call (Test System: AMES SALMONELLA TYPHIMURIUM, Strain/Indicator: TA1535, Metabolic Activation: RAT, LIVER, S-9, AROCLOR 1254, Method: STANDARD PLATE): inactive; negative; mutagenic call (Test System: AMES SALMONELLA TYPHIMURIUM, Strain/Indicator: TA1537, Metabolic Activation: NONE, Method: STANDARD PLATE): active; positive; mutagenic call (Test System: AMES SALMONELLA TYPHIMURIUM, Strain/Indicator: TA1537, Metabolic Activation: RAT, LIVER, S-9, AROCLOR 1254, Method: STANDARD PLATE): active; positive; mutagenic call (Test System: AMES SALMONELLA TYPHIMURIUM, Strain/Indicator: TA1538, Metabolic Activation: NONE, Method: STANDARD PLATE): inactive; negative; mutagenic call (Test System: AMES SALMONELLA TYPHIMURIUM, Strain/Indicator: TA1538, Metabolic Activation: RAT, LIVER, S-9, AROCLOR 1254, Method: STANDARD PLATE): inactive; negative; mutagenic call (Test System: AMES SALMONELLA TYPHIMURIUM, Strain/Indicator: TA1975, Metabolic Activation: NONE, Method: PREINCUBATION): inactive; negative; mutagenic call (Test System: AMES SALMONELLA TYPHIMURIUM, Strain/Indicator: TA2638, Metabolic Activation: NONE, Method: STANDARD PLATE): inactive; negative; mutagenic call (Test System: AMES SALMONELLA TYPHIMURIUM, Strain/Indicator: YG3001, Metabolic Activation: NONE, Method: PREINCUBATION): inactive; negative; mutagenic call (Test System: AMES SALMONELLA TYPHIMURIUM, Strain/Indicator: YG3002, Metabolic Activation: NONE, Method: PREINCUBATION): inactive; negative; mutagenic call (Test System: AMES SALMONELLA TYPHIMURIUM, Strain/Indicator: YG3003, Metabolic Activation: NONE, Method: PREINCUBATION): inactive; negative; mutagenic call (Test System: E. COLI, Strain/Indicator: WP2 (PKM101), Metabolic Activation: NONE, Method: STANDARD PLATE): inactive; negative; mutagenic call (Test System: E. COLI, Strain/Indicator: WP2 UVRA (PKM101), Metabolic Activation: NONE, Method: STANDARD PLATE): active; positive

**Q.** CC(C)Nc1nc(Cl)nc(NCC(=O)O)n1 was tested. Which mutagenic call (End Point: In vivo micronucleus, Test System: Bone marrow erythrocytes, Species: Mouse, Strain/Sex: Crl:CD-1, Route: Gavage) did it give?
**A.** The mutagenic call was “inactive; negative; proportion of pces per 1000 erythrocytes depressed”.

**Q.** With [N-]=[N+]=NCCC(N)C(=O)O (centres undefined) as the compound, how does the mutagenic call (Test System: AMES SALMONELLA TYPHIMURIUM, Strain/Indicator: TA1530, Metabolic Activation: NONE, Method: STANDARD PLATE) read?
**A.** The mutagenic call was “active; positive”.
